Data on four molecules can be found in article PMC11357446, “Searching for Novel HDAC6/Hsp90 Dual Inhibitors with Anti-Prostate Cancer Activity: In Silico Screening and In Vitro Evaluation” (Pharmaceuticals, 2024).

Molecules are shown by their SMILES.

One assay addresses Hsp90 (UniProt ID: P07900). Also noted: method as in ChEMBL [62]. As to conditions: ChEMBL record on recombinant protein, ref ChEMBL [62], cited from earlier work; for IC50: read-out: Hsp90 IC50 (Standard Value).
Another assay deals with HDAC6 (UniProt ID: Q9UBN7). Also noted: method as in ChEMBL [62]. Conditions: ChEMBL record on recombinant protein; ref ChEMBL [62]; read-out: HDAC6 IC50 (Standard Value); cited from earlier work.
Another assay deals with T1, HDAC6 recombinant enzyme (Homo sapiens, UniProt Q9UBN7).
T1 sequence (Q9UBN7 1-1215): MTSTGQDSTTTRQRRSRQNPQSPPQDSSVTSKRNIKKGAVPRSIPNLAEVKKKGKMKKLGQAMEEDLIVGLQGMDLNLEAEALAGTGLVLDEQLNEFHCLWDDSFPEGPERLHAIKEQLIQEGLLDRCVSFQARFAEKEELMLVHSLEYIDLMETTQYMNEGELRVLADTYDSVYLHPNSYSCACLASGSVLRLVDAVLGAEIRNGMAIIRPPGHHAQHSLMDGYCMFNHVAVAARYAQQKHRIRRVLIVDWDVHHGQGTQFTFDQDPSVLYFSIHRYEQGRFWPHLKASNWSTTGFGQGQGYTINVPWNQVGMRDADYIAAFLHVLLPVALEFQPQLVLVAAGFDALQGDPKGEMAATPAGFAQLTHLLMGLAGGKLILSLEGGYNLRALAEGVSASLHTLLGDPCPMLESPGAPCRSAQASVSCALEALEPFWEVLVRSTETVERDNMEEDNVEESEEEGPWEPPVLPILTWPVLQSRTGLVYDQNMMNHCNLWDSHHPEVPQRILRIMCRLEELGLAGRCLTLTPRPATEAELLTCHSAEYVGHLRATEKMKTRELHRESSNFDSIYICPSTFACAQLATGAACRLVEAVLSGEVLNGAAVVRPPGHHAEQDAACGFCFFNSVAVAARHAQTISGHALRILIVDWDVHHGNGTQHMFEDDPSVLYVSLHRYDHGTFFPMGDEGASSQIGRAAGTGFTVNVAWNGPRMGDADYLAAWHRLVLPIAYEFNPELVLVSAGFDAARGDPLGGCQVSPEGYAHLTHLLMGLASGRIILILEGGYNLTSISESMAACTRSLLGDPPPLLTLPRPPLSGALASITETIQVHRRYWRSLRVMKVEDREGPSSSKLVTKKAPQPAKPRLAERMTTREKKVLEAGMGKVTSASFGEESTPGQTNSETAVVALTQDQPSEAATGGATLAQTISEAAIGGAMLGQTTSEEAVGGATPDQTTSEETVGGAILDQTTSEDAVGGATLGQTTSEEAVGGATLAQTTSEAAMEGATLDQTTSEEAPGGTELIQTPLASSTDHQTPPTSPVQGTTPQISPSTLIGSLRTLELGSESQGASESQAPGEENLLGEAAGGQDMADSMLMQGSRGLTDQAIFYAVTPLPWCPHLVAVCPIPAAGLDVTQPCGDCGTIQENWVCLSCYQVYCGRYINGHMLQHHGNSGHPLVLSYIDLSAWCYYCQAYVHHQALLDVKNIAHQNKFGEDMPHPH
The assay can be described thus: Fluorimetric HDAC6 assay. In kind it is biochemical. Conditions: singlicate. The procedure: In vitro assessments of compounds on the HDAC6 enzyme were performed, as described in our previous works. […] The blank employed for curve fitting was evaluated on a solution of the buffer containing a concentration of […] of DMSO. IC50 values were calculated by using the GraphPad Prism 4 program based on a sigmoidal dose–response equation.

The subject of assay [1] is LNCaP prostate cancer cells. The assay can be described thus: Cell viability assay (PrestoBlue) on LNCaP cells. In kind it is cell-based, human. Conditions: Homo sapiens, LNCaP, 72 h, 72 h treatment; PrestoBlue; mean of three independent experiments ± SEM; read-out: LNCaP GI50. The procedure:
(§1) The human prostate cancer cell line PC-3 (ATCC Cat# CRL-1435) was grown in Ham’s F12 (Biowest, Nuaillé, France) medium, while the human prostate cancer cell line LNCaP (ATCC Cat# CRL-1740) was grown in RPMI 1640 (Biowest, Nuaillé, France) medium. Both media were supplemented with 10% Fetal Bovine Serum (FBS, Gibco, Fisher Scientific Italia, Segrate, Italy), 2 mM glutamine, 100 U/mL penicillin, and 100 μg/mL streptomycin. PC-3 and LNCaP cells were maintained at 37 °C in a humidified 5% CO2 atmosphere.
(§2) PC-3 and LNCaP cells were seeded at a density of 4000 and 6000 cells/well into a 96-well plate, respectively, together with a calibration curve of known cell numbers. The following day, the cells were treated with the indicated test compounds at different concentrations starting at 75μM with 2-fold serial dilutions. Cell viability was evaluated after 72h by colorimetric MTT (PC-3) or PrestoBlue™ (LNCaP) cell viability reagents. A total of 0.5 mg/mL of thiazolyl blue tetrazolium bromide (MTT) (Sigma-Aldrich, St. Louis, MO, USA) in Ham’s F12 medium was added to the wells, and the plate was incubated at 37 °C for 2 h. Medium containing unconverted MTT was removed, and 100 μL of MTT solvent (4 mM HCl, 0.1% NP40, in isopropyl alcohol) was added to the wells in order to solubilize MTT crystals. After 15 min of incubation at room temperature, the absorbance values at 570 nm were obtained with a Multiskan FC Microplate Photometer (Thermo Fisher Scientific, Waltham, MA, USA). PrestoBlue reagent (#A13261, Thermo Fisher Scientific, Waltham, MA, USA) was added to the medium (1:10 v/v) and incubated for 1 h at 37 °C. Cell viability was calculated by quantifying PrestoBlue reduction by measuring the absorbance at 570 and 620 nm, according to the manufacturer’s protocol. The viability of untreated cells was arbitrarily set at 100%, and the concentration at which cellular growth is inhibited by 50% (GI50) was determined. Three independent experiments were performed.

The test system of assay [2] is PC-3 prostate cancer cells. The assay can be described thus: Cell viability assay (MTT) on PC-3 cells. Conditions: Homo sapiens, PC-3, 72 h, 72 h treatment; MTT; mean of three independent experiments ± SEM; read-out: PC-3 GI50. In kind it is cell-based, human. The procedure:
as §1, §2

As usually defined, the Ki is a measure of affinity in units of concentration, obtained from inhibition or displacement. Consider `CCNC(=O)c1noc(-c2cc(Cl)c(O)cc2O)c1-c1ccc(CN2CCOCC2)cc1C` [CHEMBL4060353], for which the Ki at Hsp90 (read-out: Hsp90 Ki (Standard Value)) was 32 nM.
What is called IC50 is the concentration that inhibits the measured activity by half. As to `CC(C)c1cc(C(=O)N2Cc3ccc(NCc4ccc(C(=O)NO)cc4)cc3C2)c(O)cc1O` [CHEMBL4782478], the values for the IC50 in the assay with HDAC6 and with Hsp90 were 33.3 nM and 66 nM, respectively.
With `CC(C)c1cc(-c2onc(C(=O)N[C@@H](C(=O)N3CC(F)(F)C3)C(C)C)c2-c2ccc(CN3CCOCC3)cc2)c(O)cc1O` [CHEMBL4096929], the IC50 with Hsp90 is 39 nM.
In general, GI50 refers to the concentration giving 50% growth inhibition. In the case of `N#Cc1ccc(NC(=O)c2cccc(-c3noc(C(F)(F)F)n3)c2)c(O)c1` [Compound 4], the IC50 at HDAC6 recombinant enzyme is 17000 nM. Also, the GI50 in assay [1] was found to be 9500 ± 700 nM; in assay [2], 9500 ± 500 nM.
